Like-named read-outs stand apart in the source and are kept apart here.
Assays:
[1] = target: HDAC1 (Homo sapiens (Human), UniProt Q13547); experiment: Recombinant HDAC inhibition assay (HDAC1); assay type: biochemical
Procedure: (§1) Recombinant HDACs 1, 2, and 3 (BPS Biosciences) were diluted to a concentration of 1 nM in HDAC buffer. 10 uL of this solution was added in 96-well format to black U-bottom plates. 10 uL of serially diluted inhibitor was added and a 2 hour pre incubation occurred at room temperature. 50 μM (final) of Acetylated Lysine-Aminomethyl coumarin-BOC in HDAC buffer solution was added and a second 2 hour incubation occurred at room temperature. 5 mg/mL trypsin, 1 μM trichostatin A solution in HDAC buffer was added to quench the reaction. Fluorescence was read at 360 (ex.)/460 (em.) using a Tecan M200 Pro. Data were normalized to control wells containing no inhibitor. IC50's were determined using GraphPad Prism's built in “log(inhibitor) vs. normalized response—Variable slope” function.

[2] = target: HDAC2 (Homo sapiens (Human), UniProt Q92769); experiment: Recombinant HDAC inhibition assay (HDAC2); assay type: biochemical
HDAC2, sequence (Q92769 whole entry): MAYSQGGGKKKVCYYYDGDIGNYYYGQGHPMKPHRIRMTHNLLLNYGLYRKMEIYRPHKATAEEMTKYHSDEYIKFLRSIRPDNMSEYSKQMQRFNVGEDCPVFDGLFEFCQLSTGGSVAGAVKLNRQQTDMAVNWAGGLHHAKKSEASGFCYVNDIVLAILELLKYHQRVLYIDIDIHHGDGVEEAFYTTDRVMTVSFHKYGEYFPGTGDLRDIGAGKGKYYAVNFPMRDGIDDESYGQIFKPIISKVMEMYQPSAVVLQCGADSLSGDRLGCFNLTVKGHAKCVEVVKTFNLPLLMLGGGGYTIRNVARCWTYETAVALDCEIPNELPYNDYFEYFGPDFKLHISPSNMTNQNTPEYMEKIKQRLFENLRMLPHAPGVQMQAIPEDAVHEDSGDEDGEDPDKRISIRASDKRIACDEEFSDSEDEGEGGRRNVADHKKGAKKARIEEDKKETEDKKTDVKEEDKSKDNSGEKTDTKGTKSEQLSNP
Procedure: as §1

[3] = target: HDAC3 (Homo sapiens (Human), UniProt O15379); experiment: Recombinant HDAC inhibition assay (HDAC3); assay type: biochemical
HDAC3, sequence (O15379 whole entry): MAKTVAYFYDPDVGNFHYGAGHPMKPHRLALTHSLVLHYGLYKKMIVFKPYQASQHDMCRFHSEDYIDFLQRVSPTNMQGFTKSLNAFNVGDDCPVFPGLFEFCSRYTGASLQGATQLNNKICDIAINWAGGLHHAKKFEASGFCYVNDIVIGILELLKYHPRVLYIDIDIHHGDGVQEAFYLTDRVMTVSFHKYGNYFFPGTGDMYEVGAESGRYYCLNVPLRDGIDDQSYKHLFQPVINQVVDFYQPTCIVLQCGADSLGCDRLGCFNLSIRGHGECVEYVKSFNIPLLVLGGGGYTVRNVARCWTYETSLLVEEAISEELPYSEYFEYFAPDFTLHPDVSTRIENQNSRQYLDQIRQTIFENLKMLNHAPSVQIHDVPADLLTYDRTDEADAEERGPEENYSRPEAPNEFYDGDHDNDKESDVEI
HDAC3, sequence (Q9Y618 395-489 partner): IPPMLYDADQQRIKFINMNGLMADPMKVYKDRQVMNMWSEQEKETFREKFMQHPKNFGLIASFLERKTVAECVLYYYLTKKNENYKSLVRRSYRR
Procedure: Recombinant HDACs 1, 2, and 3 (BPS Biosciences) were diluted to a concentration of 1 nM in HDAC buffer. 10 uL of this solution was added in 96-well format to black U-bottom plates. 10 uL of serially diluted inhibitor was added and a 2 hour pre incubation occurred at room temperature. 50 μM (final) of Acetylated Lysine-Aminomethyl coumarin-BOC in HDAC buffer solution was added and a second 2 hour incubation occurred at room temperature. 5 mg/mL trypsin, 1 μM trichostatin A solution in HDAC buffer was added to quench the reaction. […] Data were normalized to control wells containing no inhibitor. IC50's were determined using GraphPad Prism's built in “log(inhibitor) vs. normalized response—Variable slope” function.

[4] = system: HEK293 Lysate; experiment: Hek293 lysate inhibition assay; assay type: biochemical
Procedure: Hek293 cells were purchased from ATCC and cultured in Dulbecco's modified eagle's medium with glutamax and 10% (v/v) FBS. Cells were plated in 75 cm^2 flasks and incubated at 37° C. and 5% CO2 until −80% confluent. Cells were harvested, washed, and pelleted, lysed before protein concentration was determined using a Tecan M200 spectrophotometer in a BCA assay, and finally stored at −80° C. Upon need, lysate was thawed and diluted to 1 mg/mL of protein concentration with HDAC Buffer. […] The solution was buffered to a pH of 8 and addition of 1 mg/mL BSA was added. 10 μL of this diluted lysate solution was added in 96-well format black U-bottom plates. Serially diluted inhibitor solution was added and a 2 hour pre incubation occurred at 37° C. 50 μM (final) of Acetylated Lysine-Aminomethyl coumarin-BOC in HDAC buffer solution was added and a second 2 hour incubation occurred at 37° C. 5 mg/mL trypsin, 1 μM trichostatin A solution in HDAC buffer was added to quench the reaction. […] Data were normalized to control wells containing no inhibitor. IC50's were determined using GraphPad Prism's built in “log(inhibitor) vs. normalized response—Variable slope” function.

[5] = system: TA97a and TA100 S. typhimurium; experiment: mini-Ames test; details: 96-well format
[6] = system: MV4-11 cells; experiment: Western blot analysis of MV4-11 cells; assay type: cell-based
Procedure: MV4-11 cells were cultured as described above. Cells were plated at 500 k cells/mL×3 mLs in clear, flat bottom 6 well plates. Cells were pre-incubated for 24 hours before addition of inhibitor at various concentrations. […] Cell pellets were lysed with RIPA buffer. RIPA buffer is comprised of 50 mM Tris Base, 150 mM NaCl, 5 mM EDTA, 0.1% (v/v) SDS, 0.5% (v/v) Sodium Deoxycholate, and 1% (v/v) Triton-x-100. After lysing, the suspension is ultra-sonicated and centrifuged at 15000 RPM for 15 minute at 4° C. 80 μL of supernatant was mixed with 40 μL of 15:85 (v/v) 3-mercaptoethanol:LDS solution. The mixture was heated at 90° C. for 15 minutes and stored for loading at −20° C. Prior to loading, the solution was flash thawed at 90° C. Lysates were run on Invitrogen NuPAGE 4-12% Bis-Tris 15 well gels at 170V for approximately 60 minutes in MES buffer. Gels were transferred to […] and ran at 30V for 180 minutes. Primary antibodies, purchased from Santa Cruz Biotechnology, were added in 5% (w/v) milk or 5% (w/v) Bovine Serum Albumin fraction V. The antibody was incubated with cellulose overnight at 4° C. before addition of secondary antibody in 5% (w/v) milk or 5% (w/v) Bovine Serum Albumin. Images were read using a GE ImageQuant LAS 4000. Global lighting adjustments of resulting images were made using Adobe Photoshop CC. Quantification was performed using Image Studio Lite 4.0.

[7] = reported, cited from earlier work
[8] = in human, reported; cited from earlier work
[9] = system: Raw264.7; experiment: HMGB-1 secretion by macrophages; assay type: cell-based; details: LPS plus ATP challenge
[10] = system: Raw246.7 macrophage cells; experiment: NO production in activated macrophages; assay type: cell-based; details: 100 nM, LPS and LPS+ATP
Source text: Hypo-acetylation of histone H3 and H4 were also reversed with HDAC inhibitor treatments (yellow dash box). d.

HDAC1, sequence (Q13547 whole entry): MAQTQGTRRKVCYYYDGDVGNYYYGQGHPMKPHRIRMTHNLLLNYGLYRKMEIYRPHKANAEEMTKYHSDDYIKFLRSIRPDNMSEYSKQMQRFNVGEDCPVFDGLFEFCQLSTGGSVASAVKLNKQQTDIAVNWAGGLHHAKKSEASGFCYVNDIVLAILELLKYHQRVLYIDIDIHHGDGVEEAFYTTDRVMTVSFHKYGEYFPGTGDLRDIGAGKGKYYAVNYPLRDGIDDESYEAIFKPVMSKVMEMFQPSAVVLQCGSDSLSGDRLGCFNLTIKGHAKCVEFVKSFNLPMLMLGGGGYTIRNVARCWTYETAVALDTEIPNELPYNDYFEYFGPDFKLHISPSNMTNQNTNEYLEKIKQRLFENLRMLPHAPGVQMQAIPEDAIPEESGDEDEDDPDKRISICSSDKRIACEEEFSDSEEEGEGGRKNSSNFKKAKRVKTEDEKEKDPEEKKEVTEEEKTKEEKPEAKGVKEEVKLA

Row | SMILES | IC50 [3] | IC50 [4] | also measured
1 | CCCCCNNC(=O)c1ccc(CNC(=O)c2ccccc2)cc1 [Compound 2e, N-(4-(2-pentylhydrazine-1-carbonyl)benzyl)benzamide] |  |  | IC50 [1]: 20.2 ± 5.04 nM; IC50 [2]: 43.6 ± 33.2 nM
2 | Cc1[nH]c2ccccc2c1CCNCc1ccc(/C=C/C(=O)NO)cc1 [panobinostat] |  |  | mutagenicity (mini-Ames) [5]: Ames positive; increase in Hsp70 level [6]: observed; t1/2 ([7]; in rodent): 2.9 h; Cmax [7]: 116 ng/mL; t1/2 [8]: 16 h
3 | C/C=C/CNNC(=O)c1ccc(CNC(=O)c2ccccc2)cc1 [Compound 2a, (E)-N-(4-(2-(but-2-en-1-yl)hydrazine-1-carbonyl)benzyl)benzamide] | 1530 ± 228 nM | > 10000 nM | HMGB-1 secretion [9]: attenuated
4 | CCCCc1nc2cc(/C=C/C(=O)NO)ccc2n1CCN(CC)CC [Pracinostat] |  |  | AUCinf [7]: 1,841 ng·h/mL; Cmax [7]: 2,632 ng/mL; t1/2 [7]: 2.4 h
5 | CCCCNNC(=O)c1ccco1 [Compound 1g, N′-butylfuran-2-carbohydrazide] | 5000 ± 372 nM | > 10000 nM | 
6 | CCCCCCCCCCNNC(=O)c1ccc(CNC(=O)c2ccccc2)cc1 [Compound 2k, N-(4-(2-decylhydrazine-1-carbonyl)benzyl)benzamide] | > 10000 nM | > 10000 nM | 
7 | CC/C=N/NC(=O)c1ccc(CNC(=O)c2ccccc2)cc1 [Compound 2c, (E)-N-(4-(2-propylidenehydrazine-1-carbonyl)benzyl)benzamide] | > 10000 nM | > 10000 nM | 
8 | CCCCNNC(=O)CCc1ccccc1 [Compound 1h, N′-butyl-3-phenylpropanehydrazide] | 1890 ± 227 nM | > 10000 nM | 
9 | CCCNNC(=O)c1ccc(CNC(=O)c2ccccc2)cc1 [Compound 2d, N-(4-(2-propylhydrazine-1-carbonyl)benzyl)benzamide] |  |  | IC50 [1]: 13.2 ± 2.01 nM; IC50 [2]: 77.6 ± 9.52 nM
10 | CCCCNNC(=O)c1ccc(CNC(=O)/C=C/c2ccccc2)cc1 [Compound 3c, N-(4-(2-butylhydrazine-1-carbonyl)benzyl)cinnamamide] |  |  | IC50 [1]: 60.2 ± 21 nM; IC50 [2]: 70 ± 26.4 nM
11 | O=C(CCCCCCC(=O)Nc1ccccc1)NO [vorinostat, suberanilohydroxamic acid, reference compound] |  |  | NO production, acute treatment [10]: only inhibited LPS induced NO production but not ATP driven ones; increase in Hsp70 level [6]: observed; t1/2 [7]: 0.2 h; HMGB-1 secretion [9]: attenuated
12 | CC(C)NNC(=O)c1ccc(CNC(=O)c2ccccc2)cc1 [Compound 2b, N-(4-(2-isopropylhydrazine-1-carbonyl)benzyl)benzamide] | > 10000 nM | > 10000 nM | 
13 | Nc1ccc2cc3ccccc3cc2c1 [2-aminoanthracene] |  |  | mutagenicity (mini-Ames) [5]: Ames positive
14 | CCCCNNC(=O)c1cccc2ccccc12 [Compound 1j, N′-butyl-1-naphthohydrazide] | > 10000 nM | > 10000 nM | 
15 | CCCCNNC(=O)c1cc2ccccc2o1 [Compound 1b, N′-butylbenzofuran-2-carbohydrazide] | 1360 ± 197 nM | 1690 ± 38 nM | 
16 | CCCCCCCCNNC(=O)c1ccc(CNC(=O)c2ccccc2)cc1 [Compound 2i, N-(4-(2-octylhydrazine-1-carbonyl)benzyl)benzamide] | 1090 ± 334 nM | > 10000 nM | 
17 | CCCCNNC(=O)c1ccc(CNC(=O)c2ccccc2)cc1 [Compound 1l, N-(4-(2-butylhydrazine-1-carbonyl)benzyl)benzamide] |  |  | IC50 [1]: 18.9 ± 2.74 nM; IC50 [2]: 65.2 ± 10.4 nM
18 | CCCCNNC(=O)c1cccnc1 [Compound 1d, N′-butylnicotinohydrazide] | 1550 ± 430 nM | 4680 ± 909 nM | 

More lines, main results first:

Row | IC50 [3] | SMILES | IC50 [4] | also measured
19 | 184 ± 74.5 nM | CCCCCCNNC(=O)c1ccc(CNC(=O)c2ccccc2)cc1 [Compound 2j, N-(4-(2-hexylhydrazine-1-carbonyl)benzyl)benzamide] | 550 ± 134 nM | 
20 | 150 ± 81.6 nM | CCCCCCNNC(=O)c1ccc(CNC(=O)/C=C/c2ccccc2)cc1 [Compound 3e, N-(4-(2-hexylhydrazine-1-carbonyl)benzyl)cinnamamide] | 1720 ± 139 nM | IC50 [1]: 81.4 ± 12 nM; IC50 [2]: 139 ± 29.9 nM
21 | 157 ± 28.6 nM | CCCCNNC(=O)c1ccc(OC)cc1 [Compound 1a, N′-butyl-4-methoxybenzohydrazide] | 727 ± 10.8 nM | 
22 | 19.7 ± 1.41 nM | CCNNC(=O)c1ccc(CNC(=O)/C=C/c2ccccc2)cc1 [Compound 3a, N-(4-(2-ethylhydrazine-1-carbonyl)benzyl)cinnamamide] | 171 ± 34.2 nM | IC50 [1]: 29.5 ± 10.7 nM; IC50 [2]: 76.6 ± 9.74 nM
23 | 569 ± 84.9 nM | CCCCCCCNNC(=O)c1ccc(CNC(=O)c2ccccc2)cc1 [Compound 2h, N-(4-(2-heptylhydrazine-1-carbonyl)benzyl)benzamide] | 2160 ± 896 nM | 
24 | 39.93 ± 0.25 nM | O=C(NCc1ccc(C(=O)NNCC2CC2)cc1)c1ccccc1 [Compound 2g, N-(4-(2-(cyclopropylmethyl)hydrazine-1-carbonyl)benzyl)benzamide] | 1620 ± 196 nM | 
25 | 904 ± 154 nM | CCCCNNC(=O)c1cccs1 [Compound 1f, N′-butylthiophene-2-carbohydrazide] | 3460 ± 669 nM | 
26 | 312 ± 42.8 nM | CCCCNNC(=O)c1ccc(Oc2ccccc2)cc1 [Compound 1c, N′-butyl-4-phenoxybenzohydrazide] | 1690 ± 298 nM | 
27 | 294 ± 32.6 nM | CCCCNNC(=O)/C=C/c1ccccc1 [Compound 1i, N′-butylcinnamohydrazide] | 1440 ± 86.1 nM | 
28 | 69.1 ± 0.52 nM | O=C(NCc1ccc(C(=O)NNCCC(F)(F)F)cc1)c1ccccc1 [Compound 2f, N-(4-(2-(3,3,3-trifluoropropyl)hydrazine-1-carbonyl)benzyl)benzamide] | 1230 ± 136 nM | 
29 | 84.4 ± 7.22 nM | O=C(NCc1ccc(C(=O)NNCC2CCC2)cc1)c1ccccc1 [Compound 2m, N-(4-(2-(cyclobutylmethyl)hydrazine-1-carbonyl)benzyl)benzamide] | 1880 ± 212 nM | 
30 | 187.3 ± 0.6 nM | CCNNC(=O)c1ccc(CNC(=O)c2ccccc2)cc1 [Compound 2l, N-(4-(2-ethylhydrazine-1-carbonyl)benzyl)benzamide] | 427 ± 110 nM | 
31 | 32.5 ± 1.15 nM | CCCCCNNC(=O)c1ccc(CNC(=O)/C=C/c2ccccc2)cc1 [Compound 3d, N-(4-(2-pentylhydrazine-1-carbonyl)benzyl)cinnamamide] | 691 ± 54.7 nM | IC50 [1]: 47.4 ± 16.8 nM; IC50 [2]: 99.6 ± 17.4 nM

— patent US10870618B2, “Histone deacetylase inhibitors and uses thereof” (MUSC FOUNDATION FOR RESEARCH DEVELOPMENT, priority 2016, dated 2020)
